Assay results from ChEMBL document CHEMBL6153077, “Design, synthesis, and anti-liver fibrosis activity of novel non-steroidal vitamin D receptor agonists based on open-ring steroid scaffold” (Eur J Med Chem, 2025).
Calls of active or inactive are those of the source. The rule behind the calls is not given here.

Legend:
[1] = molecular target: T1, Vitamin D3 receptor (Homo sapiens) (UniProt P11473); test: Binding affinity to full-length VDR (unknown origin) at 1 uM by fluorescence polarization assay relative to control; conditions: filed as agonist
T1 sequence (whole entry): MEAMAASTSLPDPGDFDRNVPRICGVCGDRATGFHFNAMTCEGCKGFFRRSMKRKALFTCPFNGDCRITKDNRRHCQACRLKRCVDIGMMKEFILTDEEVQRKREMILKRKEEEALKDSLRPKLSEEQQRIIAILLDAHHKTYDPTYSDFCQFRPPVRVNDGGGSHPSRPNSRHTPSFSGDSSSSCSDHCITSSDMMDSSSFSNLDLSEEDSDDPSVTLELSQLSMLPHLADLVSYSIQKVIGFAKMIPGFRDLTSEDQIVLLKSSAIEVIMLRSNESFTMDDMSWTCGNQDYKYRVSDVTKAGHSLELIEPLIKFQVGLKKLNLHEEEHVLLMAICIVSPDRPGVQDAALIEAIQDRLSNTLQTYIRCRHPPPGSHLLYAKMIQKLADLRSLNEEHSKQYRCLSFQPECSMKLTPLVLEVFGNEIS

[2] = molecular target: T1, Vitamin D3 receptor (Homo sapiens); test: Agonist activity at VDR in human LX2 cells assessed as increase in CYP24A1 level at 0.5 uM by qRT-PCR analysis; format: cell-based; conditions: filed as agonist
LX-2 [3] = test: Inhibition of HSC activation in TGF-beta1-treated human LX2 cells assessed as decrease in ACTA2 mRNA level at 0.5 uM incubated for 24 hrs by qPCR analysis; format: functional, cell-based
[4] = molecular target: T1, Vitamin D3 receptor (Homo sapiens); test: Agonist activity at human VDR in HEK293 cells co-expressing 3-Luc/RXRalpha assessed as transcriptional activity at 0.5 uM by dual luciferase reporter assay; format: cell-based; conditions: filed as agonist
LX-2 [5] = test: Inhibition of HSC activation in TGF-beta1-treated human LX2 cells assessed as decrease in COL1A1 mRNA level at 0.5 uM incubated for 24 hrs by qPCR analysis; format: functional, cell-based
LX-2 [6] = test: Inhibition of HSC activation in TGF-beta1-treated human LX2 cells assessed as decrease in collagen-I level at 0.5 uM incubated for 24 hrs by Western blot analysis; format: functional, cell-based
LX-2 [7] = test: Inhibition of HSC activation in TGF-beta1-treated human LX2 cells assessed as decrease in alpha-SMA level at 0.5 uM incubated for 24 hrs by Western blot analysis; format: functional, cell-based
LX-2 [8] = test: Inhibition of HSC activation in TGF-beta1-treated human LX2 cells harboring VDR siRNA assessed as decrease in collagen-I level at 0.5 uM incubated for 24 hrs by Western blot analysis; format: functional, cell-based
LX-2 [9] = test: Inhibition of HSC activation in TGF-beta1-treated human LX2 cells harboring VDR siRNA assessed as decrease in alpha-SMA level at 0.5 uM incubated for 24 hrs by Western blot analysis; format: functional, cell-based
Mus musculus [10] = test: Anti-fibrotic activity in CCl4-induced hepatic fibrosis C57BL/6 mouse model assessed as reduction in alpha-SMA level in liver at 500 ug/kg, po administered daily for 2 weeks by immunofluorescence based analysis; format: functional, organism-based
Mus musculus [11] = test: Anti-fibrotic activity in CCl4-induced hepatic fibrosis C57BL/6 mouse model assessed as decrease in Fn mRNA level in liver at 500 ug/kg, po administered daily for 2 weeks by qPCR analysis; format: functional, organism-based
Mus musculus [12] = test: Anti-fibrotic activity in CCl4-induced hepatic fibrosis C57BL/6 mouse model assessed as decrease in Timp-1 mRNA level in liver at 500 ug/kg, po administered daily for 2 weeks by qPCR analysis; format: functional, organism-based
Mus musculus [13] = test: Anti-fibrotic activity in CCl4-induced hepatic fibrosis C57BL/6 mouse model assessed as reduction in hepatic lesion in liver at 500 ug/kg, po administered daily for 2 weeks by H and E/Masson's trichrome staining based analysis; format: functional, organism-based
Mus musculus [14] = test: Anti-fibrotic activity in CCl4-induced hepatic fibrosis C57BL/6 mouse model assessed as reduction in ALT level at 500 ug/kg, po administered daily for 2 weeks; format: functional, organism-based
Mus musculus [15] = test: Anti-fibrotic activity in CCl4-induced hepatic fibrosis C57BL/6 mouse model assessed as prevention of serum calcium level elevation at 500 ug/kg, po administered daily for 2 weeks; format: functional, organism-based
Mus musculus [16] = test: Anti-fibrotic activity in CCl4-induced hepatic fibrosis C57BL/6 mouse model assessed as reduction in collagen deposition in liver at 500 ug/kg, po administered daily for 2 weeks by H and E/Masson's trichrome staining based analysis; format: functional, organism-based
Mus musculus [17] = test: Anti-fibrotic activity in CCl4-induced hepatic fibrosis C57BL/6 mouse model assessed as decrease in Ctgf mRNA level in liver at 500 ug/kg, po administered daily for 2 weeks by qPCR analysis; format: functional, organism-based
Mus musculus [18] = test: Anti-fibrotic activity in CCl4-induced hepatic fibrosis C57BL/6 mouse model assessed as reduction in TBA level at 500 ug/kg, po administered daily for 2 weeks; format: functional, organism-based
Mus musculus [19] = test: Anti-fibrotic activity in CCl4-induced hepatic fibrosis C57BL/6 mouse model assessed as reduction in IL-1beta level in liver at 500 ug/kg, po administered daily for 2 weeks by ELISA; format: functional, organism-based
Mus musculus [20] = test: Anti-fibrotic activity in CCl4-induced hepatic fibrosis C57BL/6 mouse model assessed as reduction in AST level at 500 ug/kg, po administered daily for 2 weeks; format: functional, organism-based
Mus musculus [21] = test: Anti-fibrotic activity in CCl4-induced hepatic fibrosis C57BL/6 mouse model assessed as increase in IL-10 level in liver at 500 ug/kg, po administered daily for 2 weeks by ELISA; format: functional, organism-based

Q: Which Activity [1] does the source give for `CC(C)(O)CCCCOc1ccc(C#CC2=C[C@@H](O)[C@@H](O)[C@H](O)C2)c2c1CCCC2` here?
A: 50%

Q: With `C=CCC(O)(CC=C)CCCOc1cccc2c1CCCC2OC(=O)C1=C[C@@H](O)[C@@H](O)[C@H](O)C1` (stereo not given in full) as the compound, how does the Activity [1] read?
A: 51%

Q: For `CCCC(O)(CCC)CCCOc1cccc2c1CCCC2OC(=O)C1=C[C@@H](O)[C@@H](O)[C@H](O)C1` (stereo not given in full), which Activity [2] is on record?
A: Active

Q: What about the inhibition (LX-2 [3]) of the same compound?
A: Active

Q: And the Activity [1]?
A: 77%

Q: And the Activity [4]?
A: Active

Q: What about the inhibition (LX-2 [5]) of the same compound?
A: Active

Q: `CC(OC(=O)C1=C[C@@H](O)[C@@H](O)[C@H](O)C1)c1cccc(OCCCC(C)(C)O)c1` (stereo not given in full) was tested. Which Activity [1] did it give?
A: 85%

Q: With `CCC(O)(CC)CCCOc1cccc2c1CCCC2OC(=O)C1=C[C@@H](O)[C@@H](O)[C@H](O)C1` (stereo not given in full) as the compound, how does the Activity [1] read?
A: 68%

Q: Which results are given for `O=C(COc1ccc(/C=C/C2=C[C@@H](O)[C@@H](O)[C@H](O)C2)c2c1CCCC2)c1ccccc1`?
A: Activity [2]: Active; inhibition (LX-2 [3]): Active; Activity [1]: 72%; inhibition (LX-2 [5]): Active

Q: `CC(C)(C)C(O)COc1ccc(/C=C/C2=C[C@@H](O)[C@@H](O)[C@H](O)C2)c2c1CCCC2` (stereo not given in full) was tested. Which Activity [1] did it give?
A: 50%

Q: `CCN(CC)C(=O)COc1ccc(/C=C/C2=C[C@@H](O)[C@@H](O)[C@H](O)C2)c2c1CCCC2` was tested. Which Activity [1] did it give?
A: 56%

Q: For `CCC(OC(=O)C1=C[C@@H](O)[C@@H](O)[C@H](O)C1)c1cccc(OCCCC(C)(C)O)c1` (stereo not given in full), which inhibition (LX-2 [6]) is on record?
A: Active

Q: What about the inhibition (LX-2 [7]) of the same compound?
A: Active

Q: And the inhibition (LX-2 [3])?
A: Active

Q: And the Activity [1]?
A: 84%

Q: What about the inhibition (LX-2 [5]) of the same compound?
A: Active

Q: Which Activity [1] does the source give for `CC(C)(C)c1ccc(C(=O)COc2ccc(/C=C/C3=C[C@@H](O)[C@@H](O)[C@H](O)C3)c3c2CCCC3)cc1` here?
A: 88%

Q: With `CCC(O)(CC)CCCn1ccc2c(/C=C/C3=C[C@@H](O)[C@@H](O)[C@H](O)C3)cccc21` as the compound, how does the Activity [2] read?
A: Active

Q: What about the Activity [1] of the same compound?
A: 64%

Q: Which inhibition (LX-2 [6]) does the source give for `CCC(O)(CC)c1ccc(-c2ccc(COC(=O)C3=C[C@@H](O)[C@@H](O)[C@H](O)C3)s2)c(C)c1` here?
A: Active

Q: And the Activity [2]?
A: Active

Q: What about the inhibition (LX-2 [7]) of the same compound?
A: Active

Q: What about the inhibition (LX-2 [3]) of the same compound?
A: Active

Q: And the Activity [1]?
A: 60%

Q: What about the Activity [4] of the same compound?
A: Active

Q: And the inhibition (LX-2 [5])?
A: Active

Q: Which Activity [1] does the source give for `CC(C)(O)CCCOc1ccc(/C=C/C2=C[C@@H](O)[C@@H](O)[C@H](O)C2)c2c1CCCC2` here?
A: 43%

Q: Which Activity [1] does the source give for `CCCCC(OC(=O)C1=C[C@@H](O)[C@@H](O)[C@H](O)C1)c1cccc(OCCCC(C)(C)O)c1` (stereo not given in full) here?
A: 50%

Q: With `CC(C)(O)CCCCOc1cccc2c1CCCC2OC(=O)C1=C[C@@H](O)[C@@H](O)[C@H](O)C1` (stereo not given in full) as the compound, how does the Activity [1] read?
A: 65%

Q: For `CCn1cc(C(CC)(CC)c2ccc(OCC(O)CO)c(C)c2)cc1C(=O)NCC(C)(C)O` (stereo not given), which inhibition (LX-2 [8]) is on record?
A: inactive

Q: And the inhibition (LX-2 [9])?
A: inactive

Q: And the Activity [1]?
A: 57%

Q: `CCC(OC(=O)C1=C[C@@H](O)[C@@H](O)[C@H](O)C1)c1cccc(OCCCC(O)(CC)CC)c1` (stereo not given in full) was tested. Which Activity (Mus musculus [10]) did it give?
A: Active

Q: And the Activity (Mus musculus [11])?
A: Active

Q: What about the Activity (Mus musculus [12]) of the same compound?
A: Active

Q: What about the Activity (Mus musculus [13]) of the same compound?
A: Active

Q: What about the Activity (Mus musculus [14]) of the same compound?
A: Active

Q: What about the Activity (Mus musculus [15]) of the same compound?
A: Active

Q: And the inhibition (LX-2 [8])?
A: inactive

Q: And the inhibition (LX-2 [6])?
A: Active

Q: And the Activity (Mus musculus [16])?
A: Active

Q: And the Activity (Mus musculus [17])?
A: Active

Q: What about the inhibition (LX-2 [9]) of the same compound?
A: inactive

Q: What about the Activity [2] of the same compound?
A: Active

Q: And the inhibition (LX-2 [7])?
A: Active

Q: And the Activity (Mus musculus [18])?
A: Active

Q: And the inhibition (LX-2 [3])?
A: Active

Q: And the Activity (Mus musculus [19])?
A: Active

Q: What about the Activity (Mus musculus [20]) of the same compound?
A: Active

Q: And the Activity [1]?
A: 84%

Q: What about the Activity (Mus musculus [21]) of the same compound?
A: Active

Q: And the Activity [4]?
A: Active

Q: And the inhibition (LX-2 [5])?
A: Active

Q: How did the Activity [1] turn out when `Cc1cc(C(C)(C)O)ccc1-c1ccc(COC(=O)C2=C[C@@H](O)[C@@H](O)[C@H](O)C2)s1` was run?
A: 71%

Q: With `CC(C)(C)C(=O)COc1ccc(/C=C/C2=C[C@@H](O)[C@@H](O)[C@H](O)C2)c2c1CCCC2` as the compound, how does the Activity [1] read?
A: 68%

Q: How did the Activity [1] turn out when `CC(C)(O)COc1ccc(/C=C/C2=C[C@@H](O)[C@@H](O)[C@H](O)C2)c2c1CCCC2` was run?
A: 72%
